{"source": "patent US10563263B2", "about": "“Genetic polymorphisms associated with statin response and cardiovascular diseases, methods of detection and uses thereof” (CELERA CORPORATION, priority 2010, dated 2020)", "tested_on": "CHD (death from CHD, nonfatal MI, or revascularization)", "test": "WOSCOPS: SNP by pravastatin treatment interaction, logistic regression (synergy index), CHD endpoint", "assay_type": "in vivo, human", "conditions": "for OR (synergy index), WOSCOPS, Prava vs Placebo: CHD endpoint; for OR (synergy index): WOSCOPS", "from_the_text": "CARE was a secondary prevention trial and WOSCOPS was a primary prevention trial.\nThe CHD endpoint was defined in the analyses herein of CARE as a composite endpoint of fatal CHD, definite non-fatal MI, or revascularization, and was defined in the analyses herein of WOSCOPS as a composite endpoint of death from CHD, nonfatal MI, or revascularization. In both the CARE and WOSCOPS analyses herein, the CVD endpoint was defined as a composite endpoint of CHD or stroke. […] Revascularization, which can include percutaneous transluminal coronary angioplasty (PTCA), stent placement, and coronary artery bypass graft (CABG), are medical interventions that indicate the presence of CHD.\nCohort and case-only study designs were used to identify SNPs associated with response to statin treatment.\nFor each SNP, a logistic regression model having treatment status as the dependent variable and SNP as the independent predictor variable was performed, with terms for age, sex and race included in the model as covariates. The anti-log of the regression coefficient corresponding to the SNP is an estimate of the synergy index (SI) (Davis et al., “Imputing gene-treatment interactions when the genotype distribution is unknown using case-only and putative placebo analyses-a new method for the Genetics of Hypertension Associated Treatment (GenHAT) study”, Statistics in Medicine 23: (2004), pages 2413-2427). The SI is a ratio of odds ratios: for example in the CARE and WOSCOPS studies, the SI represents the factor by which the odds-ratio of statin treatment, compared with placebo, among major homozygous individuals is multiplied by in order to obtain the odds-ratio of treatment vs. placebo among heterozygous individuals; and multiplied by a second time to obtain the odds-ratio of treatment vs. placebo in minor homozygous individuals. The case-only study design results in a valid estimate of the SI under the assumption that genotype and treatment are independent in the population. In a randomized clinical trial, genotype and treatment are independent by design. The p-value for the regression coefficient corresponding to the SNP results from a test of the null hypothesis that the regression coefficient is equal to zero (SI is equal to one) and thus small p-values indicate the SI is unlikely equal to one and that the effect of treatment likely differs by genotype. […]"}
{"smiles": "CC[C@H](C)C(=O)O[C@H]1C[C@H](O)C=C2C=C[C@H](C)[C@H](CC[C@@H](O)C[C@@H](O)CC(=O)O)[C@H]21", "note": "[Pravastatin, pravastatin]", "values": [{"measurement": "OR (synergy index), WOSCOPS, Prava vs Placebo", "setting": "SNP rs198462 (A1 G, A2 A), rec model, Caseonly", "value": 2.12}, {"measurement": "OR (synergy index), WOSCOPS, Prava vs Placebo", "setting": "SNP rs198476 (A1 G, A2 A), rec model, cohort", "value": 1.61}, {"measurement": "OR (synergy index), WOSCOPS, Prava vs Placebo", "setting": "SNP rs471579 (A1 A, A2 C), add model, Caseonly", "value": 1.62}, {"measurement": "OR (synergy index), WOSCOPS, Prava vs Placebo", "setting": "SNP rs1324012 (A1 A, A2 G), add model, Caseonly", "value": 0.60}, {"measurement": "OR (synergy index), WOSCOPS, Prava vs Placebo", "setting": "SNP rs1917527 (A1 A, A2 C), rec model, Caseonly", "value": 0.73}, {"measurement": "OR (synergy index), WOSCOPS, Prava vs Placebo", "setting": "SNP rs7873371 (A1 A, A2 G), add model, Caseonly", "value": 1.59}, {"measurement": "OR (synergy index)", "setting": "rs992695, Imputed, allele (A1) C, model ADD, NMISS 431", "value": 0.7364}, {"measurement": "OR (synergy index)", "setting": "rs992695, Imputed, allele (A1) C, model DOM, NMISS 431", "value": 0.6065}, {"measurement": "OR (synergy index)", "setting": "rs9881685, Imputed, allele (A1) A, model ADD, NMISS 431", "value": 0.4853}, {"measurement": "OR (synergy index)", "setting": "rs9881685, Imputed, allele (A1) A, model DOM, NMISS 431", "value": 0.4903}, {"measurement": "OR (synergy index)", "setting": "rs9936999, Imputed, allele (A1) G, model DOM, NMISS 249", "value": 1.779}, {"measurement": "WOSCOPS OR", "setting": "rs1948, source CaseOnly, model dom, endpoint CHD", "value": 1.96}, {"measurement": "WOSCOPS OR", "setting": "rs198476, Source cohort", "value": 1.61}, {"measurement": "WOSCOPS OR", "setting": "rs238272, source CaseOnly, model add, endpoint CHD", "value": 1.46}, {"measurement": "WOSCOPS OR", "setting": "rs264122, Source cohort", "value": 0.66}, {"measurement": "OR (synergy index)", "setting": "rs483159 allele T, DOM model, Imputed", "value": 1.412}, {"measurement": "OR (synergy index)", "setting": "rs489441 allele G, ADD model, Imputed", "value": 1.6}, {"measurement": "OR (synergy index)", "setting": "rs489441 allele G, DOM model, Imputed", "value": 1.651}, {"measurement": "WOSCOPS OR", "setting": "rs694780, Source caseonly", "value": 0.62}, {"measurement": "WOSCOPS OR", "setting": "rs842796, source CaseOnly, model dom, endpoint CHD", "value": 1.38}, {"measurement": "WOSCOPS OR", "setting": "rs886469, source CaseOnly, model dom, endpoint CHD", "value": 0.55}, {"measurement": "WOSCOPS OR", "setting": "rs912366, source CaseOnly, model dom, endpoint CHD", "value": 1.79}, {"measurement": "WOSCOPS OR", "setting": "rs969356, source CaseOnly, model dom, endpoint CHD", "value": 0.54}, {"measurement": "WOSCOPS OR", "setting": "rs1009748, Source cohort", "value": 1.35}, {"measurement": "WOSCOPS OR", "setting": "rs1015199, Source caseonly", "value": 1.66}, {"measurement": "WOSCOPS OR", "setting": "rs1190706, Source cohort", "value": 0.70}, {"measurement": "WOSCOPS OR", "setting": "rs1336400, Source caseonly", "value": 1.35}, {"measurement": "WOSCOPS OR", "setting": "rs1538185, source cohort, model dom, endpoint CHD", "value": 1.41}, {"measurement": "WOSCOPS OR", "setting": "rs1544214, source CaseOnly, model add, endpoint CHD", "value": 1.35}, {"measurement": "WOSCOPS OR", "setting": "rs1615197, source CaseOnly, model dom, endpoint CHD", "value": 2.25}, {"measurement": "WOSCOPS OR", "setting": "rs1705244, source CaseOnly, model dom, endpoint CHD", "value": 0.52}, {"measurement": "WOSCOPS OR", "setting": "rs1864924, source CaseOnly, model add, endpoint CHD", "value": 1.36}, {"measurement": "WOSCOPS OR", "setting": "rs1877986, source cohort, model dom, endpoint CHD", "value": 0.71}, {"measurement": "WOSCOPS OR", "setting": "rs1884897, source CaseOnly, model rec, endpoint CHD", "value": 1.78}, {"measurement": "WOSCOPS OR", "setting": "rs2008165, source cohort, model add, endpoint CHD", "value": 0.62}, {"measurement": "WOSCOPS OR", "setting": "rs2069542, source CaseOnly, model add, endpoint CHD", "value": 1.49}, {"measurement": "WOSCOPS OR", "setting": "rs2104506, source CaseOnly, model add, endpoint CHD", "value": 0.65}, {"measurement": "WOSCOPS OR", "setting": "rs2108425, Source caseonly", "value": 0.62}, {"measurement": "WOSCOPS OR", "setting": "rs2263901, source CaseOnly, model add, endpoint CHD", "value": 1.57}, {"measurement": "WOSCOPS OR", "setting": "rs2263920, source CaseOnly, model rec, endpoint CHD", "value": 0.41}, {"measurement": "WOSCOPS OR", "setting": "rs2265346, source CaseOnly, model dom, endpoint CHD", "value": 0.42}, {"measurement": "WOSCOPS OR", "setting": "rs2273816, source CaseOnly, model add, endpoint CHD", "value": 1.69}, {"measurement": "WOSCOPS OR", "setting": "rs2274473, source CaseOnly, model dom, endpoint CHD", "value": 0.48}, {"measurement": "WOSCOPS OR", "setting": "rs2327412, Source caseonly", "value": 1.41}, {"measurement": "WOSCOPS OR", "setting": "rs2418412, source cohort, model rec, endpoint CHD", "value": 1.58}, {"measurement": "WOSCOPS OR", "setting": "rs2616548, Source caseonly", "value": 1.37}, {"measurement": "WOSCOPS OR", "setting": "rs2648694, Source caseonly", "value": 2.29}, {"measurement": "WOSCOPS OR", "setting": "rs2655222, Source caseonly", "value": 0.20}, {"measurement": "WOSCOPS OR", "setting": "rs2941528, source CaseOnly, model add, endpoint CHD", "value": 0.58}, {"measurement": "WOSCOPS OR", "setting": "rs2993156, Source caseonly", "value": 0.76}, {"measurement": "WOSCOPS OR", "setting": "rs3732788, source CaseOnly, model add, endpoint CHD", "value": 0.44}, {"measurement": "WOSCOPS OR", "setting": "rs3759607, source CaseOnly, model dom, endpoint CHD", "value": 1.73}, {"measurement": "WOSCOPS OR", "setting": "rs3763978, Source cohort", "value": 0.68}, {"measurement": "WOSCOPS OR", "setting": "rs3998860, source CaseOnly, model add, endpoint CHD", "value": 0.70}, {"measurement": "WOSCOPS OR", "setting": "rs4240808, Source caseonly", "value": 0.61}, {"measurement": "WOSCOPS OR", "setting": "rs4242281, Source caseonly", "value": 1.46}, {"measurement": "OR (synergy index)", "setting": "rs4315598 allele T, ADD model, Imputed", "value": 1.407}, {"measurement": "OR (synergy index)", "setting": "rs4315598 allele T, REC model, Imputed", "value": 1.414}, {"measurement": "OR (synergy index)", "setting": "rs4321395 allele A, DOM model, Imputed", "value": 0.5278}, {"measurement": "OR (synergy index)", "setting": "rs4321596 allele T, REC model, Genotyped", "value": 3.01}, {"measurement": "OR (synergy index)", "setting": "rs4324417 allele T, DOM model, Imputed", "value": 1.541}, {"measurement": "OR (synergy index)", "setting": "rs4328619 allele G, DOM model, Genotyped", "value": 0.6446}, {"measurement": "OR (synergy index)", "setting": "rs4338909 allele T, ADD model, Imputed", "value": 1.42}, {"measurement": "OR (synergy index)", "setting": "rs4370878 allele G, DOM model, Imputed", "value": 1.497}, {"measurement": "OR (synergy index)", "setting": "rs4379434 allele T, DOM model, Genotyped", "value": 1.603}, {"measurement": "OR (synergy index)", "setting": "rs4416407 allele T, DOM model, Imputed", "value": 1.502}, {"measurement": "OR (synergy index)", "setting": "rs4417899 allele C, REC model, Imputed", "value": 0.6657}, {"measurement": "WOSCOPS OR", "setting": "rs4420312, Source caseonly", "value": 0.64}, {"measurement": "OR (synergy index)", "setting": "rs4442732 allele A, ADD model, Imputed", "value": 0.7543}, {"measurement": "OR (synergy index)", "setting": "rs4444612 allele G, ADD model, Imputed", "value": 1.407}, {"measurement": "OR (synergy index)", "setting": "rs4444612 allele G, REC model, Imputed", "value": 1.414}, {"measurement": "OR (synergy index)", "setting": "rs4450660 allele C, DOM model, Imputed", "value": 1.776}, {"measurement": "OR (synergy index)", "setting": "rs4509702 allele C, DOM model, Imputed", "value": 1.497}, {"measurement": "OR (synergy index)", "setting": "rs4533145 allele T, DOM model, Imputed", "value": 0.6617}, {"measurement": "OR (synergy index)", "setting": "rs4557006 allele A, DOM model, Imputed", "value": 0.5409}, {"measurement": "OR (synergy index)", "setting": "rs4570530 allele C, DOM model, Imputed", "value": 1.497}, {"measurement": "OR (synergy index)", "setting": "rs4615971 allele C, DOM model, Imputed", "value": 1.474}, {"measurement": "OR (synergy index)", "setting": "rs4628119 allele A, DOM model, Imputed", "value": 0.5304}, {"measurement": "OR (synergy index)", "setting": "rs4664443 allele G, ADD model, Imputed", "value": 0.6931}, {"measurement": "WOSCOPS OR", "setting": "rs4682522, source CaseOnly, model dom, endpoint CHD", "value": 0.49}, {"measurement": "OR (synergy index)", "setting": "rs4688259 allele T, DOM model, Imputed", "value": 1.502}, {"measurement": "OR (synergy index)", "setting": "rs4688632 allele G, REC model, Imputed", "value": 0.6718}, {"measurement": "OR (synergy index)", "setting": "rs4695284 allele A, ADD model, Imputed", "value": 1.566}, {"measurement": "OR (synergy index)", "setting": "rs4700302 allele A, ADD model, Imputed", "value": 0.5418}, {"measurement": "OR (synergy index)", "setting": "rs4702720 allele A, ADD model, Imputed", "value": 0.7075}, {"measurement": "OR (synergy index)", "setting": "rs4702720 allele A, DOM model, Imputed", "value": 0.7149}, {"measurement": "OR (synergy index)", "setting": "rs4714484 allele A, ADD model, Imputed", "value": 0.5609}]}
